Assay results from US20250339385A1, “TOPICAL FORMULATION OF DIMETHYLCURCUMIN” (ANNJI PHARMACEUTICAL CO., LTD., priority 2021, published 2025).

Assay: Solubility of API (Formula I) in aqueous system / solvents
Format: physicochemical
Method: When the API of Formula I is in the aqueous system, it forms crystals and precipitates out of solution. To investigate a compatible matrix that allows greater Formula I solubility, various systems containing Formula I were stored at room temperature for 24 hours and were examined under a polarized light microscope to observe the presence or absence of Formula I crystal precipitation.

Question: For dimethylcurcumin [Formula I], which “solubility of API in aqueous phase (aqueous system)” value (aqueous system) is on record?
Answer: practically insoluble

Question: And the “solubility of API in diethylene glycol monoethyl ether” value (diethylene glycol monoethyl ether)?
Answer: good solubility
